{
  "source": "patent US20080183070A1",
  "about": "“Multi-mode medical device system with thermal ablation capability and methods of using same” (Wisconsin Alumni Research Foundation, priority 2007, published 2008)",
  "key": {"[1]": {"assay": "Diffusion of a fluorescent probe in swollen gelatin gel by FRAP", "type": "physicochemical", "excerpt": "To assess the stability of DTPA[Gd(III)] in the gelatin coating, the diffusion of a fluorescence probe in gelatin was studied by the technique of fluorescence recovery after photobleaching (FRAP). The instrument and data analysis scheme are described in Kim, S. H. and Yu, H., J. Phys. Chem. 1992, 96, 4034, which is hereby fully incorporated by reference. Fluorescein was used as the fluorescence probe due, in part, to its molecular size being roughly the same as that of DTPA[Gd(III)].\nThe focus of the study was to examine the possible retardation effects of gelatin concentration and cross-link density on the diffusion, which was determined at room temperature, i.e., below the gel point of gelatin. The diffusion of fluorescein probe slows down with the increase of gelatin concentration. The diffusion coefficient decreases from 1.5×10-10 to 9×10-12 m2s−1 when the concentration of gelatin increases from 9% to 40%. […] Accordingly, the probe diffusion is more likely controlled by the concentration of gelatin rather than the cross-link density. On the other hand, the cross-link density may determine the swelling ratio of gelatin, i.e., the concentration of gelatin in aqueous solution. […]"}, "[2]": {"assay": "MR visibility test of the functional gelatin coating on PE rod in saline and yogurt (Example 14)", "details": "after soaking in water for 12 hours", "experimental": "Samples having the above formulations were transferred to a glass tube and kept in a water bath at 35° C. A bare PE rod (5 cm in length) was then dipped into the solution, and then removed. The rod was then cooled to room temperature to allow chill-setting of the gelatin solution and to form the coating on the rod surface. The same procedure was repeated to overcoat additional layers of gel. The final dry thickness of gel-coating was about 60 μm.\nThe gelatin coatings were dried in air while being chemically cross-linked by BVSM. The dried and cross-linked samples were then soaked in distilled water for 12 hours. Soaking each sample in distilled water may remove the DTPA[Gd(III)] that was not physically or chemically constrained by the cross-linked network of gelatin overcoat. Because the DTPA[Gd(III)] complexes were not chemically linked to the gelatin chains, most of them would be expected to diffuse out of the coating when soaked in water, whereas some of DTPA[Gd(III)] may be confined by the crystal domains in gelatin or by hydrogen bonding between gelatin chains and DTPA. In any event, after the soaking, the gelatin coating was dried again in air before MRI test.\nThe MR visibility of the samples prepared as outlined above, was tested in two media: saline and yogurt. […]"}},
  "data": [
    {"smiles": "O=C(O)CN(CCN(CC(=O)O)CC(=O)O)CCN(CC(=O)O)CC(=O)O", "note": "[DTPA, diethylenetriaminepentaacetic acid]", "values": [
      {"measurement": "Time to diffuse out of the gelatin coating", "setting": "[1]; coating thickness 60 μm, diffusion coefficient 9×10-12 m2s−1", "value": "about 67 seconds"}
    ]},
    {"smiles": "O=C([O-])CN(CCN(CC(=O)[O-])CC(=O)O)CCN(CC(=O)[O-])CC(=O)O.[Gd+3]", "note": "[DTPA[Gd(III)], gadolinium-diethylene triamine pentaacetic acid]", "values": [
      {"measurement": "Retention in the gelatin coating", "setting": "[2]", "value": "some fraction of DTPA[Gd(III)] remained in the gel"}
    ]},
    {"smiles": "O=C1OC2(c3ccc(O)cc3Oc3cc(O)ccc32)c2ccccc21", "note": "[fluorescein]", "values": [
      {"measurement": "Fluorescence signal remaining in gelatin films", "setting": "[1]; films soaked in water for 18 hours, including non-cross-linked films", "value": "still fluorescence signal"}
    ]}
  ]
}
